From patent publication US20140005103A1, “SULFONAMIDE DERIVATIVES AND METHODS OF USE THEREOF FOR IMPROVING THE PHARMACOKINETICS OF A DRUG” (Merck, Sharp & Dohme Corp., priority 2012, published 2014)

Key:
CYP2C9 = biological target: T1, CYP2C9 (Homo sapiens, UniProt P11712); assay: Cocktail CYP assay, diclofenac 4'-hydroxylation; type: in vitro ADME; details: human liver microsomes, 5 μM diclofenac; test concentrations up to 10 μM
T1 construct: 0.1 mg/mL protein human liver microsomes (BD Gentest); tissue BD Gentest; host or cells: human liver microsomes
Protocol: (§1) Determination of IC50 in a Cocktail Assay for CYPs 1A2, 2C9, 2C19, 2D6 and 3A4
(§2) This assay was performed in a standard 96-well plate design. IC50 values were calculated from the percent inhibition observed for each test compound at 6 concentrations (for example, 0.0032, 0.016, 0.08, 0.4, 2 and 10 μM). The incubation substrate mix contains 10 μM phenacetin (1A2), 5 μM diclofenac (2C9), 30 μM mephenyloin (2C19), 5 μM dextromethorphan (2D6) and 2 μM midazolam (3A4), 0.1 mg/mL protein human liver microsomes (BD Gentest), 1 mM NAPDH, 3.3 mM MgCl2 and 100 mM potassium phosphate buffer (pH 7.4). The production of the metabolite of each probe substrate was determined after incubation for 10 min at 37° C. Quantitation of the metabolite peak area ratio against an internal standard (tolbutamide) was determined by LC/MS/MS analysis following acetonitrile treatment of the incubations.
(§3) Samples were analyzed in the MRM mode with a SCIEX API-4000 mass spectrometer (Applied Biosystems, Foster City, Calif.), with a Shimadzu LC-20 AD pump (Shimadzu corporation, Kyoto, JP) and a CTC PAL autosampler (Agilent Technologies, Switzerland). A Phenomenex, Luna, […], 100 A, 2.00×30 mm HPLC column was used for the separation. The mobile phases were: (A) 0.1% formic acid in water and (B) 0.1% formic acid in acetonitrile. The binary gradient was as follows.
(§4) The peak area ratio of the analyte to the internal standard was used to quantify the metabolite. The values of peak area ratios in the presence of test compound were compared to those of maximum or minimum controls and were expressed as % inhibition by interpolating between the maximum and minimum peak area ratios. Incubations with no inhibitor were defined as the maxima.
(§5) The following equation was used to calculate the % inhibition:
(§6) [1−[(X−Low control)/(High control−Low control)]]*100
(§7) For the IC50 calculation, SigmaPlot was used to plot the mean % inhibition versus the test compound concentrations and for non-linear regression analysis of the data. Depending on the range of data points defining the inhibition curve, the data may have been fit to the 4-parameter logistic equation.

CYP2C19 = biological target: T2, CYP2C19 (Homo sapiens, UniProt P33261); assay: Cocktail CYP assay, mephenytoin 4'-hydroxylation; type: in vitro ADME; details: human liver microsomes, 30 μM mephenytoin; test concentrations up to 10 μM
T2 construct: 0.1 mg/mL protein human liver microsomes (BD Gentest); tissue BD Gentest; host or cells: human liver microsomes
Protocol: as §1, §2, §3, §4, §5, §6, §7

human CYP11B1 = biological target: T3, human CYP11B1 (Homo sapiens, UniProt P15538); assay: IC50 vs CYP11B1 by cortisol synthesis in V79 cells; type: cell-based; details: V79 cells expressing human CYP11B1, 1500 nM RSS, cortisol HTRF; test concentrations 0.5-10000 nM
T3 construct: expressed in transfected cells
T3 sequence (P15538 25-503): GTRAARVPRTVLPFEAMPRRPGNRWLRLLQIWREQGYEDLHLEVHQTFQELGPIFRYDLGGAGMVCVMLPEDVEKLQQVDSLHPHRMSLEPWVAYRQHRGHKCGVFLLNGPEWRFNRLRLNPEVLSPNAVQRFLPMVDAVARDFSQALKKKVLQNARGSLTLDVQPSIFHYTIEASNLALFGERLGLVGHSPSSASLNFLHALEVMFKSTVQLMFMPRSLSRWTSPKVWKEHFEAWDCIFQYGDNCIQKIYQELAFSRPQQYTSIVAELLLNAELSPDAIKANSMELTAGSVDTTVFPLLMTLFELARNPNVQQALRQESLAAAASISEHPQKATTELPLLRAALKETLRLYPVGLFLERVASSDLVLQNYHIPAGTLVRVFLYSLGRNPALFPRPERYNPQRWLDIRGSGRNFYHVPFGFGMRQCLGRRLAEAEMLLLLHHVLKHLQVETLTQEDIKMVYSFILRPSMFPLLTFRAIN
Protocol: (§8) Determination of IC50 vs CYP11B1/CYP11B2 by Measurement of Cortisol/Aldosterone Synthesis
(§9) This assay was performed in a standard 384-well plate design using cultured V79 cells stably expressing human CYP11B1 or human CYP11B2. Test compounds at 10 concentrations (for example, 10000, 3333.3, 1111.1, 370.4, 123.5, 41.2, 13.7, 4.6, 1.5 and 0.5 nM) were added in 384-well plate after the cell-seeding procedure. The incubation substrate contains 1500 nM RSS for CYP11B1 assay/750 nM DOC for CYP11B2 assay. The
(§10) Cortisol/Aldosterone production of cell culture supernatant was determined by Cortisol/Aldosterone HTRF kit after for about 15 hours incubation at RT (protect from light). IC50 values were calculated from the percent inhibition observed for each test compound at 10 concentrations.
(§11) The assay plate was read using Envision (Perkin Elmer, Waltham, Mass.) at 665 nm and 590 nm (using Filter Barcode of 217#, 205#; Mirror Barcode of 446#).
(§12) Data are analyzed using Assay Data Analyzer. All ratio data (665 nm/590 nm) are back calculated according to the standard curve, resulting in Cortisol/Aldosterone concentrations. IC50 values are reported as the Inflection Point (IP) of a four parameter fit of the titration data.
as §5
(§13) % Activity=100×{1−(Sample_back calculated Cortisol/Aldosterone concentration−LC_back calculated Cortisol/Aldosterone concentration)/(HC_back calculated Cortisol/Aldosterone concentration−LC_back calculated Cortisol/Aldosterone concentration)}

human CYP11B2 = biological target: T4, human CYP11B2 (Homo sapiens, UniProt P19099); assay: IC50 vs CYP11B2 by aldosterone synthesis in V79 cells; type: cell-based; details: V79 cells expressing human CYP11B2, 750 nM DOC, aldosterone HTRF; test concentrations 0.5-10000 nM
T4 construct: expressed in transfected cells
T4 sequence (P19099 25-503): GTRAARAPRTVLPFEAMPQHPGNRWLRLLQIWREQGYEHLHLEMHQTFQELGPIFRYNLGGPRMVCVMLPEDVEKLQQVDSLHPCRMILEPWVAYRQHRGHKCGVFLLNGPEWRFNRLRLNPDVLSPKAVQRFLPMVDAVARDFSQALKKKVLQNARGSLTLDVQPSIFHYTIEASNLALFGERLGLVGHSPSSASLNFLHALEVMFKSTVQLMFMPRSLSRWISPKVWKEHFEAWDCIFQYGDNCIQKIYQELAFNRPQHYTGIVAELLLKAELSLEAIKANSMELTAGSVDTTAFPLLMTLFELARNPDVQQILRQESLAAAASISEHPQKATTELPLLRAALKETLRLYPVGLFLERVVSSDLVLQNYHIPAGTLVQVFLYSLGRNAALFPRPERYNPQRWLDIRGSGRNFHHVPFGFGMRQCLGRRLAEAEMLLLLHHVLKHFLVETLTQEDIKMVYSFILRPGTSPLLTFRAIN
Protocol: as §8, §9, §10, §11, §12, §5, §13

T1 sequence (P11712 whole entry): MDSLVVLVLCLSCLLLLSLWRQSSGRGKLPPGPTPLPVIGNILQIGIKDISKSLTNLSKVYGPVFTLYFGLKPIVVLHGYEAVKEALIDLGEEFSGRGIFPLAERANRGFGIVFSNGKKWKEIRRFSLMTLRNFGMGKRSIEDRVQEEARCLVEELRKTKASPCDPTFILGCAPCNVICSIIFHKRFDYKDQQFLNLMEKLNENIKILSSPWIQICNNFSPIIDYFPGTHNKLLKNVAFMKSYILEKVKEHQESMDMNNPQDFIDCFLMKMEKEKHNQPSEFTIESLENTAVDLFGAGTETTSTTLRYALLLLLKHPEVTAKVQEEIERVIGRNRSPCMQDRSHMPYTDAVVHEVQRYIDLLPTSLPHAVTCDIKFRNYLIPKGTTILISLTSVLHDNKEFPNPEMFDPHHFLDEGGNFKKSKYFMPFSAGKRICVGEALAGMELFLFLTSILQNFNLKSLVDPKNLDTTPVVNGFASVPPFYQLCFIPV
T2 sequence (P33261 whole entry): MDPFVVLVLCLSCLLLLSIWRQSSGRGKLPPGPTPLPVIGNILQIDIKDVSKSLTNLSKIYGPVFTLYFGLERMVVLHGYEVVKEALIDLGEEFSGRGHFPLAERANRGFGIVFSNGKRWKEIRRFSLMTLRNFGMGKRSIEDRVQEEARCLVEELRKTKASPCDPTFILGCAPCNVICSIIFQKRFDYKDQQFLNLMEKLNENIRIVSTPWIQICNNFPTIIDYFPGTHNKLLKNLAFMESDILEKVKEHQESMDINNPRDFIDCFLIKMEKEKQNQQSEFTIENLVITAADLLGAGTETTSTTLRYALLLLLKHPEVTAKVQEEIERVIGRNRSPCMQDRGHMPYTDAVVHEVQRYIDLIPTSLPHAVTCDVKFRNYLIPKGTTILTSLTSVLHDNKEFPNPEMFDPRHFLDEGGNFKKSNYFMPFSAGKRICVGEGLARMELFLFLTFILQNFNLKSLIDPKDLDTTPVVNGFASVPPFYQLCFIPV

| IC50 (CYP2C9) [µM] | IC50 (CYP2C19) [µM] | IC50 (human CYP11B1) [µM] | IC50 (human CYP11B2) [µM] | Structure (SMILES) |
| --- | --- | --- | --- | --- |
| 5.7 | 2.29 | 1.16 | 1.35 | CC1CN2C[C@H](O)C[C@H]2CN1c1ncc(S(=O)(=O)N2CCN(Cc3cncn3[C@H](C)c3ccc(F)cc3)CC2)s1 (single isomer, unassigned) [Compound 22] |
| 1.84 | 0.721 | 0.225 | 0.445 | C[C@H](c1ccc(C#N)cc1)n1cncc1CN1CCN(S(=O)(=O)c2cnc(Nc3ccc(C(F)(F)F)cn3)s2)CC1 [Compound 4] |
| 1.77 | 6.48 | 1.57 | 2.27 | C[C@H](c1ccc(F)cc1)n1cncc1CN1CCN(S(=O)(=O)c2cnc(N3CCN4CCC(O)[C@H]4C3)s2)CC1 (stereo partly shown) [Compound 27] |
| > 10 | > 10 | 7.8 | > 10 | C[C@H](c1ccc(F)cc1)n1cnnc1CN1CCN(S(=O)(=O)c2cnc(N3CCN4C[C@H](O)C[C@H]4C3)s2)CC1 [Compound 42] |
| 1.94 | > 10 | 1.56 | 3.88 | C[C@H](c1ccc(F)cc1)n1cncc1CN1CCN(S(=O)(=O)c2cnc(N3CCN4C[C@H](O)C[C@@H]4C3)s2)CC1 [Compound 6] |
| > 10 | > 10 | 4.51 | 2.9 | C[C@H](c1ccc(F)cc1)n1cncc1CN1CCN(S(=O)(=O)c2cnc(N3CCNCC3)cn2)CC1 [Compound 30] |
| 4.12 | > 10 | 2.04 | 3.92 | C[C@H](c1ccc(F)cc1)n1cncc1CN1CCN(S(=O)(=O)c2cnc(N3CCN(C4CCN(C)CC4)CC3)s2)CC1 [Compound 9] |
| 5.01 | > 10 | 1.22 | 4.57 | CC1CN(c2ncc(S(=O)(=O)N3CCN(Cc4cncn4[C@H](C)c4ccc(F)cc4)CC3)s2)C[C@@H]2C[C@@H](O)CN12 (stereo partly shown) [Compound 23] |
| 1.16 | ≥ 10 | 3.92 | > 10 | C[C@H](c1ccc(F)cc1)n1cncc1CN1CCN(S(=O)(=O)c2cnc(N3C[C@@H]4C[C@@H](O)CN4C[C@@H]3C)s2)CC1 [Compound 21] |
| 6.61 | 3.68 | 3.55 | 4.64 | C[C@H](c1ccc(F)cc1)n1cncc1CN1CCN(S(=O)(=O)c2ccc(N3CCNCC3)cn2)CC1 [Compound 28] |
| 1.56 | 3.44 | 1.58 | 1.03 | CN1CCN(c2ncc(S(=O)(=O)N3CCN(Cc4cncn4CCOc4ccc(Cl)cc4)CC3)s2)CC1 [Compound 32] |
| 9.73 | > 10 | 6.93 | > 10 | C[C@H](c1ccc(F)cc1)n1cncc1CN1CCN(S(=O)(=O)c2cnc(N3CCC(N)(CO)CC3)s2)CC1 [Compound 25] |
| 1.47 | > 10 | > 10 | > 10 | C[C@H](c1ccc(F)cc1)n1cncc1CN1CCN(S(=O)(=O)c2cnc(N3CCC4(CC3)CNC(=O)N4)s2)CC1 [Compound 3] |
| 2.68 | > 10 | 1.91 | > 10 | C[C@H](c1ccc(F)cc1)n1cncc1CN1CCN(S(=O)(=O)c2cnc(N3CCN4C[C@@H](CN)C[C@H]4C3)s2)CC1 [Compound 10] |
| 1.41 | 7.95 | 1.85 | 1.93 | C[C@H](c1ccc(F)cc1)n1cncc1CN1CCN(S(=O)(=O)c2cnc(N3CCN4C[C@H](O)CC[C@H]4C3)s2)CC1 [Compound 19] |
| 4.5 | 4.11 | 1.02 | 2.24 | C[C@H](c1ccc(F)cc1)n1cncc1CN1CCN(S(=O)(=O)c2cnc(N3CC[C@@H](N4CCOCC4)[C@H](F)C3)s2)CC1 [Compound 20] |
